Results as given in patent publication US8354417B2, “Solid forms comprising 3-(2,5-dimethyl-4-oxo-4H-quinazolin-3-yl)-piperidine-2,6-dione, compositions comprising the same, and methods of using the same” (Celgene Corporation, priority 2007, dated 2013).
≈ marks a conversion by molar mass, not a printed value. Entries after “also recorded” stand apart in the source; their conditions may differ. One block for each compound: values may come before it.

How the values were obtained:
[1] = Approximate measured solubility in solvents at 25° C.; assay type: physicochemical; settings: at least 24 hours; for solubility: 25 °C, thermodynamic from solid
Protocol: (§1) The solubility of Form A was investigated in a number of solvents at ambient conditions. Solubility measurements were obtained by adding solvent (either HPLC grade or reagent grade) to a carefully weighed (approximately 100 mg) sample of Form A. The resulting mixture was agitated for at least 24 hours at 25° C. The solubility was estimated based on the total volume of solvent required to give a complete solution. In addition, a known volume of filtrate was evaporated to dryness and the weight of the residue was measured.
as §1, with “B” for “A”, “B.” for “A.”

[2] = Stability of slurry in solvents at 40° C. for four weeks; assay type: physicochemical
Protocol: The stability of Form A was further investigated by storing a slurry of Form A in each of the following solvents at 40° C. for four weeks: acetone; acetonitrile; ethanol; heptane; 2-propanol; methyl t-butyl ether; methanol; water; and ethanol/water (1/1). The Form A material was stable in acetone; acetonitrile; ethanol; heptane; 2-propanol; methyl t-butyl ether; and methanol.
The stability of Form B was further investigated by storing a slurry of Form B in the following solvents at 40° C. for four weeks: acetone; acetonitrile; ethanol; heptane; 2-propanol; methyl t-butyl ether; methanol; water; and ethanol/water (1/1). The Form B material was stable in heptane; methyl t-butyl ether; water; and ethanol/water (1/1).

[3] = Moisture sorption/desorption by Dynamic Vapor Sorption (DVS); assay type: physicochemical; settings: isothermic approximately 23.3° C.; for Mass increase in moisture sorption test: approximately 0% RH to approximately 50% RH (FIG. 5 / FIG. 10); for Total mass increase in moisture sorption test: approximately 0% RH to approximately 95% RH (FIG. 5 / FIG. 10)
[4] = as above; assay type: physicochemical; settings: for Mass change relative to the dry mass: DVS, RH increased from 0% to 95% RH (25° C. per general method); for Weight at the end of the desorption cycle: RH decreased from 95% RH to 0% RH; for XRPD diffractogram after completion of the adsorption/desorption cycle: after full DVS cycle 0% - 95% - 0% RH; for Hygroscopicity: conclusion from moisture sorption test
Protocol: The moisture sorption/desorption behavior of Form A was investigated by Dynamic Vapor Sorption (DVS).
The moisture sorption/desorption behavior of Form B was investigated by Dynamic Vapor Sorption (DVS).
Hygroscopicity was determined using a Surface Measurement Systems DVS instrument. Typically, a sample size of 10-50 mg was loaded into the DVS instrument sample pan and the sample was analyzed on a DVS automated sorption analyzer at 25° C. The relative humidity (RH) was increased from 0% RH to 95% RH. The RH was then decreased in a similar manner to accomplish a full adsorption/desorption cycle.

[5] = Slurry equilibration in solvents at 25° C. or 50° C.; assay type: physicochemical; settings: ethyl acetate, heptane, methyl t-butyl ether, toluene
Protocol: Form A was prepared via crystallization of 3-(2,5-dimethyl-4-oxo-4H-quinazolin-3-yl)-piperidine-2,6-dione in several organic solvent systems. Slurry crystallizations were performed by adding an excess of solid 3-(2,5-dimethyl-4-oxo-4H-quinazolin-3-yl)-piperidine-2,6-dione to 2 ml of the desired solvent system, then agitating the resulting mixture for a minimum of 24 hours at a controlled temperature. Upon reaching equilibrium, the solids were filtered, air-dried and characterized. Form A was prepared by slurry crystallization of Form B in each of the following solvents at 25° C.: acetone; acetonitrile; n-butanol; ethanol; methanol; methyl ethyl ketone; 2-propanol; and tetrahydrofuran.
Form B was prepared via crystallization of 3-(2,5-dimethyl-4-oxo-4H-quinazolin-3-yl)-piperidine-2,6-dione in several organic and aqueous solvent systems, including dimethylsulfoxide/water. Slurry crystallizations were performed by adding an excess of solid 3-(2,5-dimethyl-4-oxo-4H-quinazolin-3-yl)-piperidine-2,6-dione to 2 ml of the desired solvent system, then agitating the resulting mixture for a minimum of 24 hours at a controlled temperature. Upon reaching equilibrium, the solids were filtered, air-dried and characterized. Form B was prepared by slurry crystallization of Form A in the following solvents at both 25° C. and 50° C.: water; and ethanol/water (1/1).

[6] = Stability on exposure to 40° C./75% RH for four weeks (XRPD); assay type: physicochemical; settings: 40° C./75% RH environment
Protocol: The stability of Form A was investigated by exposing a sample of Form A to a 40° C./75% RH environment for four weeks.
The stability of Form B was investigated by exposing a sample of Form B to a 40° C./75% RH environment for four weeks.
(§2) X-ray powder diffraction (XRPD) analysis was conducted using a Thermo ARL X'TRA X-ray powder diffractometer using CuKα radiation at 1.54 Å. The instrument was equipped with a fine focus X-ray tube. The voltage and amperage of the X-ray generator were set at 45 kV and 40 mA, and the measuring slits were set at 0.5 mm and 0.2 mm. Diffracted radiation was measured using a Peltier-cooled Si (Li) solid-state detector. A theta-two theta continuous scan at 2.40°/min (0.5 sec/0.02° step) from 1.5°2θ to 40°2θ was used. A sintered alumina standard was used as a reference.

[7] = Compression testing, 2,000 psi for approximately 1 minute (XRPD); assay type: physicochemical; settings: 2,000 psi pressure
Protocol: The stability of Form A was further investigated using compression testing. Compression testing of Form A was carried out by applying 2,000 psi pressure to a sample of Form A for approximately 1 minute, followed by analysis for stability using X-ray powder diffraction.
The stability of Form B was further investigated using compression testing. Compression testing of Form B was carried out by applying 2,000 psi pressure to a sample of Form B for approximately 1 minute, followed by analysis for stability using X-ray powder diffraction.
as §2

solubility ([1]; 2-propanol, organic solvent or mixture): 210 µg/mL (≈ 736 µM)
solubility ([1]; absolute ethanol, organic solvent or mixture): 500 µg/mL (≈ 1750 µM)
solubility ([1]; acetone, organic solvent or mixture): 2070 µg/mL (≈ 7260 µM)
solubility ([1]; acetonitrile, organic solvent or mixture): 1490 µg/mL (≈ 5220 µM)
solubility ([1]; ethanol/water (1/1), aqueous with cosolvent or surfactant or cyclodextrin): 180 µg/mL (≈ 631 µM)
solubility ([1]; ethyl acetate, organic solvent or mixture): 670 µg/mL (≈ 2350 µM)
solubility ([1]; heptane, organic solvent or mixture): 430 µg/mL (≈ 1510 µM)
solubility ([1]; methanol, organic solvent or mixture): 1280 µg/mL (≈ 4490 µM)
solubility ([1]; methyl ethyl ketone, organic solvent or mixture): 1390 µg/mL (≈ 4870 µM)
solubility ([1]; methyl t-butyl ether, organic solvent or mixture): 420 µg/mL (≈ 1470 µM)
solubility ([1]; methylene chloride, organic solvent or mixture): 2120 µg/mL (≈ 7430 µM)
solubility ([1]; n-butanol, organic solvent or mixture): 230 µg/mL (≈ 806 µM)
solubility ([1]; tetrahydrofuran, organic solvent or mixture): 4570 µg/mL (≈ 16000 µM)
solubility ([1]; toluene, organic solvent or mixture): 320 µg/mL (≈ 1120 µM)
solubility ([1]; water): 170 µg/mL (≈ 596 µM)
Stability of slurry ([2]; acetone, acetonitrile, ethanol, heptane, 2-propanol, methyl t-butyl ether, methanol): stable
Stability of slurry ([2]; water and ethanol/water (1/1)): converted into the Form B crystal form
Mass increase in moisture sorption test [3]: approximately 1%
Total mass increase in moisture sorption test [3]: approximately 4%
Mass change relative to the dry mass [4]: 0.7%
XRPD diffractogram after completion of the adsorption/desorption cycle [4]: substantially unchanged
Hygroscopicity [4]: substantially non-hygroscopic
melting point: 292 to 294 °C
Stability when slurried ([5]; 25° C., acetone, acetonitrile, n-butanol, ethanol, methanol, methylene chloride, methyl ethyl ketone, 2-propanol, tetrahydrofuran): stable
Stability when slurried ([5]; 50° C., acetone, acetonitrile, n-butanol, ethanol, methanol, methyl ethyl ketone, 2-propanol, tetrahydrofuran): stable
SMILES: Cc1cccc2nc(C)n(C3CCC(=O)NC3=O)c(=O)c12 (single isomer, unassigned) [Form A, 3-(2,5-dimethyl-4-oxo-4H-quinazolin-3-yl)-piperidine-2,6-dione]
Weight at the end of the desorption cycle [4]: lost all of the weight it had gained; also recorded: loses approximately all of the adsorbed moisture
Physical stability of the solid form by X-ray powder diffraction [6]: substantially unchanged; also recorded: physically stable
Physical stability upon compression by X-ray powder diffraction [7]: substantially unchanged; also recorded: physically stable

Approximate Solubility ([1]; 2-Propanol): 350 µg/mL
Approximate Solubility ([1]; Absolute ethanol): 500 µg/mL
Approximate Solubility ([1]; Acetone): 2560 µg/mL
Approximate Solubility ([1]; Acetonitrile): 1400 µg/mL
Approximate Solubility ([1]; Ethanol/Water (1/1)): 280 µg/mL
Approximate Solubility ([1]; Ethyl acetate): 1160 µg/mL
Approximate Solubility ([1]; Heptane): 440 µg/mL
Approximate Solubility ([1]; Methanol): 1310 µg/mL
Approximate Solubility ([1]; Methyl ethyl ketone): 1570 µg/mL
Approximate Solubility ([1]; Methyl t-butyl ether): 430 µg/mL
Approximate Solubility ([1]; Methylene chloride): 1630 µg/mL
Approximate Solubility ([1]; Tetrahydrofuran): 4710 µg/mL
Approximate Solubility ([1]; Toluene): 200 µg/mL
Approximate Solubility ([1]; Water): 100 µg/mL
Approximate Solubility ([1]; n-Butanol): 340 µg/mL
Stability of slurry ([2]; 2-propanol): converted to a mixture of Forms A and B
Stability of slurry ([2]; acetone, acetonitrile, ethanol and methanol): converted into the Form A crystal form
Stability of slurry ([2]; heptane, methyl t-butyl ether, water, ethanol/water (1/1)): stable
Mass increase in moisture sorption test [3]: approximately 1.5%
Total mass increase in moisture sorption test [3]: approximately 3%
Mass change relative to the dry mass [4]: 2.9%
XRPD diffractogram after completion of the adsorption/desorption cycle [4]: substantially unchanged
Hygroscopicity [4]: substantially non-hygroscopic
Stability when slurried ([5]; 25° C., methylene chloride, water, ethanol/water (1/1)): stable
SMILES: Cc1cccc2nc(C)n(C3CCC(=O)NC3=O)c(=O)c12 (single isomer, unassigned) [Form B, 3-(2,5-dimethyl-4-oxo-4H-quinazolin-3-yl)-piperidine-2,6-dione]
Weight at the end of the desorption cycle [4]: lost all of the weight it had gained; also recorded: loses approximately all of the adsorbed moisture
Physical stability of the solid form by X-ray powder diffraction [6]: substantially unchanged; also recorded: physically stable
Physical stability upon compression by X-ray powder diffraction [7]: substantially unchanged; also recorded: physically stable
